Reference: patent US20030096237A1, “Determination of the ability of patients to respond to a tumor treatment” (priority 2000, published 2003)

Test system: CNCM I-2546
Test: oligonucleotide array analysis of IFN-α modulated gene expression
Assay type: cell-based, human
Parameters: key to nAD M94880 mhc class i (hla-a*8001): normalized average difference between perfect and mismatch probeset signals
Protocol: All these cell lines were cultured in RPMI medium supplemented with 10% FCS, glutamine (2 mM), sodium pyruvate (1 mM), non-essential amino acids and HEPES buffer (10 mM) (all from GIBCO Life Sciences, Paisley, UK). When confluent, the cells were passaged by trypsinization.
Cultured melanoma cells were harvested by scraping and total cellular RNA was extracted. 10 μg from each sample were used directly as templates for cDNA synthesis using a commercial kit (Roche Molecular Biochemicals, Rotkreuz, Switzerland). The T7 promoter sequence incorporated into the cDNA synthesis primer allowed template amplification and biotin labeling by in vitro transcription using a commercial kit (Affymetrix, Santa Clara, Calif.). After alkaline heat fragmentation […] was hybridised to the array (Affymetrix, Santa Clara, Calif.) and all subsequent steps were performed following standard procedures as supplied with the arrays. Raw data were collected with a confocal laser scanner (Hewlett Packard, Palo Alto, Calif.) using GeneChip software v3.1 (Affymetrix, Santa Clara, Calif.).
Raw data were normalized based on the total chip signal obtained upon hybridisation of ME15 cell line cDNA. This array was selected because: i) the 5′/3′ intensity ratio of control genes was smaller than 3; ii)>25% of the genes are called “present” by Genechip; iii) the image appearance is homogeneous with low background and no sign of mechanical chip damage.
The normalized average difference (nAD) between the signals of the perfect and of the mismatch probesets for each gene was used as the expression level of a given gene. At least one nAD value in a pairwise comparison of data has to exceed 50 to be included. Based on nAD, change factors related to IFN-α exposure were also calculated. Negative nAD values were set to 20 in order to avoid the calculation of artificially high modifications. In order to exclude artefacts, only genes with robust change factors, greater than 2-fold, were included in the analysis. […] Genes were clustered according to their mode of regulation.
Total cellular RNA was extracted from the sensitive and resistant melanoma cell lines identified above, reverse transcribed and processed for hybridization to an oligonucleotide array (Hu6800FL, PN 900183) containing probe sets derived from 7000 full-length human genes. Expression levels for each gene were calculated as normalized average difference (nAD, see materials and methods).
Patterns of genes expressed in IFN-α sensitive and resistant melanoma cell lines were investigated upon 48 hour culture in the presence of IFN-α. CNCM I-2546 and CNCM I-2545 were studied in detail.
In Table 2 below, CNCM I-2546 and CNCM I-2545 cultured for 48 hours in the absence or in the presence of 100 U/ml IFN-α were used to assay cytokine modulated gene expression as matched with data obtained in fibrosarcoma cells. This analysis yielded six clusters of genes. […] Data are presented as average difference of signal intensity between match and mismatch probesets.
In Table 3 below, CNCM I-2546 and CNCM I-2545 cell lines cultured for 48 hours in the absence or in the presence of 100 U/ml IFN-α were used to identify novel cytokine induced genes whose expression was not found to be modulated in fibrosarcoma cells. Cluster 1 includes genes inducible in the CNCM I-2546 sensitive but not in the CNCM I-2545 resistant cell line. Cluster 2 comprises genes inducible in both lines. Data are presented as average difference of signal intensity between match and mismatch probesets.

[1] = CNCM I-2546 (+) IFN-α 100 U/ml 48 hours, (−) 0
[2] = CNCM I-2546 (+) IFN-α 100 U/ml 48 hours, (−) 24
[3] = CNCM I-2546 (+) IFN-α 100 U/ml 48 hours, (−) 43
[4] = CNCM I-2546 (+) IFN-α 100 U/ml 48 hours, (−) 55
[5] = CNCM I-2546 (+) IFN-α 100 U/ml 48 hours, (−) 77
[6] = CNCM I-2546 (+) IFN-α 100 U/ml 48 hours, (−) 107
[7] = CNCM I-2546 (+) IFN-α 100 U/ml 48 hours, (−) 110
[8] = CNCM I-2546 (+) IFN-α 100 U/ml 48 hours, (−) 150

## IFN-α
[1]
  nAD L37043 casein kinase i epsilon: 441
  nAD L40387 thyroid receptor interactor (trip14): 85
CNCM I-2546 (+) IFN-α 100 U/ml 48 hours, (−) 3
  nAD U51127 interferon regulatory factor 5: 116
CNCM I-2546 (+) IFN-α 100 U/ml 48 hours, (−) 12
  nAD Z56281 interferon regulatory factor 3: 136
CNCM I-2546 (+) IFN-α 100 U/ml 48 hours, (−) 15
  nAD M98343 amplaxin (ems1): 141
CNCM I-2546 (+) IFN-α 100 U/ml 48 hours, (−) 18
  nAD J03909 gamma-interferon-inducible protein (ip-30): 57
CNCM I-2546 (+) IFN-α 100 U/ml 48 hours, (−) 21
  nAD D32050 alanyl-trna synthetase: 427
[2]
  nAD M60784 ul snrnp-specific protein: 216
  nAD X57351 1-8d gene from interferon-inducible gene family: 297
CNCM I-2546 (+) IFN-α 100 U/ml 48 hours, (−) 28
  nAD D28137 bst-2: 305
CNCM I-2546 (+) IFN-α 100 U/ml 48 hours, (−) 31
  nAD S81914 iex-1 = radiation-inducible immediate-early gene: 312
CNCM I-2546 (+) IFN-α 100 U/ml 48 hours, (−) 34
  nAD X96401 rox protein: 143
[3]
  nAD M79462 pml-1: 1
  nAD U22970 16-jun gene, interferon-inducible peptide (6-16): 2363
CNCM I-2546 (+) IFN-α 100 U/ml 48 hours, (−) 46
  nAD L42243 ifnar2 gene (interferon receptor): −4
CNCM I-2546 (+) IFN-α 100 U/ml 48 hours, (−) 49
  nAD U52513 rig-g: 96
[4]
  nAD K01900 lymphocyte interferon alpha type 201: 85
  nAD M19650 2′,3′-cyclic nucleotide 3prime-phosphodiesterase: 269
CNCM I-2546 (+) IFN-α 100 U/ml 48 hours, (−) 58
  nAD X95325 dna binding protein a variant: 375
CNCM I-2546 (+) IFN-α 100 U/ml 48 hours, (−) 67
  nAD X15949 interferon regulatory factor-2 (irf-2): 11
CNCM I-2546 (+) IFN-α 100 U/ml 48 hours, (−) 73
  nAD Z26491 gene catechol o-methyltransferase: 337
[5]
  nAD U69126 fuse binding protein 2 (fbp2): 302
  nAD X76538 mpv17: 313
CNCM I-2546 (+) IFN-α 100 U/ml 48 hours, (−) 80
  nAD U50327 protein kinase c substrate 80k-h gene (prkcsh): 312
CNCM I-2546 (+) IFN-α 100 U/ml 48 hours, (−) 83
  nAD U09579 melanoma differentiation associated (mda-6): 361
CNCM I-2546 (+) IFN-α 100 U/ml 48 hours, (−) 86
  nAD U70063 human acid ceramidase: 221
CNCM I-2546 (+) IFN-α 100 U/ml 48 hours, (−) 89
  nAD Y00264 amyloid a4 precursor: 304
CNCM I-2546 (+) IFN-α 100 U/ml 48 hours, (−) 92
  nAD L35249 vacuolar h + -atpase mr 56,000 subunit (ho57): 227
CNCM I-2546 (+) IFN-α 100 U/ml 48 hours, (−) 104
  nAD U41515 dss1: 51
[6]
  nAD U18018 ela enhancer binding protein (ela-f): 340
  nAD X04412 plasma gelsolin: 372
[7]
  nAD D50914 EST: 359
  nAD U65579 mitochondrial nadh dehydrogenase-ubiquinone: 377
CNCM I-2546 (+) IFN-α 100 U/ml 48 hours, (−) 113
  nAD U72206 guanine nucleotide regulatory factor (lfp40): 459
CNCM I-2546 (+) IFN-α 100 U/ml 48 hours, (−) 119
  nAD D78132 rheb gene, ras-related gtp binding protein gene: 307
CNCM I-2546 (+) IFN-α 100 U/ml 48 hours, (−) 122
  nAD X70848 protein phosphatase 1, catalytic subunit: 370
CNCM I-2546 (+) IFN-α 100 U/ml 48 hours, (−) 132
  nAD M31013 nonmuscle myosin heavy chain (nmhc): 441
CNCM I-2546 (+) IFN-α 100 U/ml 48 hours, (−) 138
  nAD J00212 leukocyte interferon (ifn-alpha): 49
CNCM I-2546 (+) IFN-α 100 U/ml 48 hours, (−) 141
  nAD U91316 acyl-coa thioester hydrolase: 706
CNCM I-2546 (+) IFN-α 100 U/ml 48 hours, (−) 144
  nAD D49824 hla-b null allele: 925
CNCM I-2546 (+) IFN-α 100 U/ml 48 hours, (−) 147
  nAD HG2917 major histocompatibility complex, class i, e: 813
[8]
  nAD D21235 hhr23a protein: 582
  nAD U61263 acetolactate synthase homolog: 464
CNCM I-2546 (+) IFN-α 100 U/ml 48 hours, (−) 153
  nAD M65028 heterogeneous nuclear ribonucleoprotein a/b: 326
CNCM I-2546 (+) IFN-α 100 U/ml 48 hours, (−) 156
  nAD HG658 major histocompatibility complex, class 1 c: 1692
CNCM I-2546 (+) IFN-α 100 U/ml 48 hours, (−) 168
  nAD J04182 lysosomal membrane glycoprotein-1 (lamp1): 452
CNCM I-2546 (+) IFN-α 100 U/ml 48 hours, (−) 184
  nAD L07633 interferon-gamma: 463
CNCM I-2546 (+) IFN-α 100 U/ml 48 hours, (−) 187
  nAD U18009 chromosome 17q21 clone lf113: 735
CNCM I-2546 (+) IFN-α 100 U/ml 48 hours, (−) 193
  nAD U47025 fetal brain glycogen phosphorylase b: 924
CNCM I-2546 (+) IFN-α 100 U/ml 48 hours, (−) 202
  nAD M94880 mhc class i (hla-a*8001): 932
CNCM I-2546 (+) IFN-α 100 U/ml 48 hours, (−) 248
  nAD J00105 beta-2 microglobulin gene: 1453
CNCM I-2546 (+) IFN-α 100 U/ml 48 hours, (−) 263
  nAD Z47055 farnesyl pyrophosphate synthetase like: 529
CNCM I-2546 (+) IFN-α 100 U/ml 48 hours, (−) 275
  nAD U78525 human eukaryotic translation initiation factor (eif3): 589
CNCM I-2546 (+) IFN-α 100 U/ml 48 hours, (−) 300
  nAD U65932 extracellular matrix protein 1 (ecm1): 907
CNCM I-2546 (+) IFN-α 100 U/ml 48 hours, (−) 309
  nAD J04444 cytochrome c-1 gene: 1286
CNCM I-2546 (+) IFN-α 100 U/ml 48 hours, (−) 401
  nAD HG1612 macmarcks: 1440
CNCM I-2546 (+) IFN-α 100 U/ml 48 hours, (−) 425
  nAD X90846 mixed lineage kinase 2: 173
CNCM I-2546 (+) IFN-α 100 U/ml 48 hours, (−) 429
  nAD M34338 spermidine synthase: 1413
CNCM I-2546 (+) IFN-α 100 U/ml 48 hours, (−) 444
  nAD L13210 mac-2 binding protein: 2016
CNCM I-2546 (+) IFN-α 100 U/ml 48 hours, (−) 487
  nAD K03515 neuroleukin: 2126
CNCM I-2546 (+) IFN-α 100 U/ml 48 hours, (−) 756
  nAD M30818 interferon-induced cellular resistance mediator protein: 155
CNCM I-2546 (+) IFN-α 100 U/ml 48 hours, (−) −9
  nAD U72882 interferon-induced leucine zipper protein (ifp35): 502
CNCM I-2546 (+) IFN-α 100 U/ml 48 hours, (−) −31
  nAD U53830 interferon regulatory factor 7a: 237
CNCM I-2546 (+) IFN-α 100 U/ml 48 hours, (−) −37
  nAD M97935 transcription factor isgf-3: 296
CNCM I-2546 (+) IFN-α 100 U/ml 48 hours, (−) −49
  nAD X57522 ring4 cdna: 97
CNCM I-2546 (+) IFN-α 100 U/ml 48 hours, (−) −64
  nAD X07730 prostate specific antigen: 132
CNCM I-2546 (+) IFN-α 100 U/ml 48 hours, (−) −70
  nAD U50648 interferon-inducible rna-dependent protein kinase (pkr): 71
CNCM I-2546 (+) IFN-α 100 U/ml 48 hours, (−) −73
  nAD U01824 glutamate/aspartate transporter: 91
CNCM I-2546 (+) IFN-α 100 U/ml 48 hours, (−) −89
  nAD J04164 interferon-inducible protein 27-sep: 2066
CNCM I-2546 (+) IFN-α 100 U/ml 48 hours, (−) −147
  nAD M92642 alpha-1 type xvi collagen (col16a1): −133
CNCM I-2546 (+) IFN-α 100 U/ml 48 hours, (−) −181
  nAD M13755 interferon-induced 17-kda/15-kda protein: 716
CNCM I-2546 (+) IFN-α 100 U/ml 48 hours, (−) −211
  nAD X67325 p27: 410
CNCM I-2546, IFN-α 100 U/ml 48 hours
  change factor (CF) D21235 hhr23a protein: 2.88
